Assay results reported in patent US20260137701A1, “CHOLESTENOIC ACID (CA) AND A SULFATED DERIVATIVE THEREOF, 3[BETA]-SULFATE-5-CHOLESTENOIC ACID (CA3S), AS ENDOGENOUS EPIGENETIC REGULATORS” (priority 2022, published 2026).

System: HepG-2 cells
Assay: mRNA sequencing, differential expression genes
Assay type: cell-based, human
Protocol: After culturing HepG-2 cells in DMEM medium with HG for 72 hours followed by treating with 20 μM CA for 0, 3, 6, 12, and 24 hours, genomic DNA from 5×10^7 cells were extracted using QIAamp® DNA Mini Kit (QIAGEN, Hilden, Germany). Each sample, 6 μg, was sent to CD Genomics Co., Ltd (New York, USA) for analysis of WGBS. Total RNA was isolated using the Promega SV total RNA isolation system (Madison, WI, USA) with DNase treatment. Each sample, 2 μg, were sent to CD Genomics Co., Ltd (New York, USA) for analysis of RNA sequencing. The same samples, 2 μg, was used for the first-strand cDNA synthesis as recommended by the manufacturer (Invitrogen, Carlsbad, CA). RT-qPCR was performed using SYBR Green as the indicator on ABI 7500 Fast Real-Time PCR System (Applied Biosystems, Foster City, CA). Amplifications of j-actin or GAPDH were used as internal controls. Relative messenger RNA (mRNA) expression was quantified with the comparative cycle threshold (Ct) method using a sutiable primer set and was expressed as 2-ΔΔCt as described previously.
Total RNA was extracted and purified from HepG-2 cells using SV total RNA isolation system (Promega, Madison, WI). Messenger RNA was purified from total RNA using poly-T oligo-attached magnetic beads. After fragmentation, the first strand cDNA was synthesized using random hexamer primers, followed by the second strand cDNA synthesis using either dUTP for directional library or dTTP for non-directional library. The library was checked with Qubit and real-time PCR for quantification and bioanalyzer for size distribution detection. Quantified libraries will be pooled and sequenced on Illumina® platforms, according to effective library concentration and data amount. Raw data (raw reads) of fastq format were first processed through in-house perl scripts. In this step, clean data (clean reads) were obtained by removing reads containing adapter, reads containing ploy-N and low-quality reads from raw data. At the same time, Q20, Q30 and GC content of the clean data were calculated. All the downstream analyses were based on clean data with high quality. The clean data were aligned to reference genome (GRCh37) using Hisat2 v2.0.5 software. Differential expression genes (DEGs) were performed using the DESeq2 R package (1.20.0). DAVID software (website located at david.ncifcrf.gov/) was used to test the statistical enrichment of DMR related genes in the GO and KEGG pathways.

## CC(CCC[C@@H](C)[C@H]1CC[C@H]2[C@@H]3CC=C4C[C@@H](O)CC[C@]4(C)[C@H]3CC[C@]12C)C(=O)O (stereo partly drawn) [CA, 3β-hydroxy-5-cholestenoic acid]
20 μM CA, 6 hours
  Fold Change ABCF1 (down regulated gene): −1.35 fold
  Fold Change ACTA1 (up regulated gene): 1.32 fold
  Fold Change ACTN4 (up regulated gene): 3.26 fold
  Fold Change ANGPTL8 (down regulated gene): −1.77 fold
  Fold Change ARHGAP17 (up regulated gene): 2.50 fold
  Fold Change ATG16L1 (down regulated gene): −1.32 fold
  Fold Change C2 (down regulated gene): −1.14 fold
  Fold Change C5orf51 (down regulated gene): −1.06 fold
  Fold Change CD99 (up regulated gene): 3.60 fold
  Fold Change COG5 (down regulated gene): −1.44 fold
  Fold Change CPSF1 (down regulated gene): −4.45 fold
  Fold Change CUTA (up regulated gene): 1.76 fold
  Fold Change CYP1A1 (up regulated gene): 1.97 fold
  Fold Change CYP51A1 (down regulated gene): −1.25 fold
  Fold Change DCAF11 (down regulated gene): −1.74 fold
  Fold Change DLG5 (up regulated gene): 1.44 fold
  Fold Change DNHD1 (down regulated gene): −1.21 fold
  Fold Change EEF1A1P13 (up regulated gene): 2.82 fold
  Fold Change EEF1B2 (up regulated gene): 1.29 fold
  Fold Change EHMT2 (up regulated gene): 1.16 fold
  Fold Change FBL (down regulated gene): −1.87 fold
  Fold Change FDFT1 (down regulated gene): −1.30 fold
  Fold Change FLII (up regulated gene): 2.04 fold
  Fold Change FST (up regulated gene): 1.25 fold
  Fold Change FZD1 (up regulated gene): 1.06 fold
  Fold Change GBA (up regulated gene): 2.25 fold
  Fold Change GBP1 (up regulated gene): 1.37 fold
  Fold Change GFUS (down regulated gene): −2.73 fold
  Fold Change GMPR2 (up regulated gene): 3.88 fold
  Fold Change GNL1 (up regulated gene): 1.59 fold
  Fold Change GTF2H1 (up regulated gene): 1.85 fold
  Fold Change GTPBP6 (down regulated gene): −2.08 fold
  Fold Change HMGCR (down regulated gene): −1.55 fold
  Fold Change HMGCS1 (down regulated gene): −2.12 fold
  Fold Change HSD17B7 (down regulated gene): −1.05 fold
  Fold Change HSPA1A (up regulated gene): 1.22 fold
  Fold Change HSPA1B (up regulated gene): 1.16 fold
  Fold Change IBTK (down regulated gene): −2.44 fold
  Fold Change ID3 (down regulated gene): −2.65 fold
  Fold Change IDI1 (down regulated gene): −1.86 fold
  Fold Change INPP5K (up regulated gene): 1.04 fold
  Fold Change IPO4 (down regulated gene): −1.51 fold
  Fold Change IRF9 (up regulated gene): 1.42 fold
  Fold Change LDLR (down regulated gene): −1.46 fold
  Fold Change LFNG (up regulated gene): 1.02 fold
  Fold Change LINC02119 (down regulated gene): −1.39 fold
  Fold Change LOC729973 (down regulated gene): −1.08 fold
  Fold Change LOC107985276 (down regulated gene): −1.32 fold
  Fold Change LOC112268009 (up regulated gene): 1.19 fold
  Fold Change LPCAT1 (down regulated gene): −1.43 fold
  Fold Change MCRIP1 (up regulated gene): 2.17 fold
  Fold Change MINCR (up regulated gene): 1.24 fold
  Fold Change MSMO1 (down regulated gene): −2.30 fold
  Fold Change MT1E (up regulated gene): 1.81 fold
  Fold Change MT1F (up regulated gene): 2.51 fold
  Fold Change MT1G (up regulated gene): 2.43 fold
  Fold Change MT1X (up regulated gene): 2.15 fold
  Fold Change MT2A (up regulated gene): 1.44 fold
  Fold Change MTCH2 (down regulated gene): −2.50 fold
  Fold Change MTMR11 (up regulated gene): 1.48 fold
  Fold Change MVD (down regulated gene): −1.20 fold
  Fold Change MVK (down regulated gene): −1.57 fold
  Fold Change MYEOV (down regulated gene): −1.08 fold
  Fold Change NDUFS1 (up regulated gene): 1.45 fold
  Fold Change NEK10 (up regulated gene): 1.06 fold
  Fold Change NEU4 (down regulated gene): −1.99 fold
  Fold Change NOP9 (down regulated gene): −2.89 fold
  Fold Change NPIPA2 (up regulated gene): 1.32 fold
  Fold Change NUP160 (down regulated gene): −1.36 fold
  Fold Change PAK1 (down regulated gene): −1.14 fold
  Fold Change PAK1IP1 (down regulated gene): −3.71 fold
  Fold Change PALLD (up regulated gene): 1.02 fold
  Fold Change PCSK9 (down regulated gene): −1.08 fold
  Fold Change PFKFB4 (down regulated gene): −1.30 fold
  Fold Change PHF1 (up regulated gene): 1.42 fold
  Fold Change PNPLA3 (down regulated gene): −1.42 fold
  Fold Change POLR3E (down regulated gene): −1.12 fold
  Fold Change PRPF31 (up regulated gene): 1.38 fold
  Fold Change PRSS8 (down regulated gene): −1.46 fold
  Fold Change PSMB3 (down regulated gene): −4.67 fold
  Fold Change PSME2 (up regulated gene): 2.33 fold
  Fold Change PTEN (down regulated gene): −1.64 fold
  Fold Change PTGDR2 (up regulated gene): 1.58 fold
  Fold Change PUF60 (down regulated gene): −2.01 fold
  Fold Change RBFOX2 (down regulated gene): −1.14 fold
  Fold Change RCBTB2 (up regulated gene): 1.18 fold
  Fold Change RDH11 (down regulated gene): −1.06 fold
  Fold Change RN7SK (down regulated gene): −1.58 fold
  Fold Change RNF187 (up regulated gene): 1.25 fold
  Fold Change RPS9 (down regulated gene): −1.14 fold
  Fold Change RPS14P1 (up regulated gene): 1.50 fold
  Fold Change RPS17 (up regulated gene): 3.79 fold
  Fold Change RRN3 (down regulated gene): −1.05 fold
  Fold Change RUSC1-AS1 (down regulated gene): −1.37 fold
  Fold Change SBNO2 (up regulated gene): 1.13 fold
  Fold Change SERTAD1 (up regulated gene): 1.06 fold
  Fold Change SGK1 (up regulated gene): 1.03 fold
  Fold Change SLC39A7 (up regulated gene): 2.59 fold
  Fold Change SLC39A10 (down regulated gene): −1.10 fold
  Fold Change SNHG32 (down regulated gene): −1.62 fold
  Fold Change SPC25 (down regulated gene): −1.51 fold
  Fold Change SPSB2 (up regulated gene): 1.18 fold
  Fold Change SQLE (down regulated gene): −1.73 fold
  Fold Change SQSTM1 (down regulated gene): −1.29 fold
  Fold Change STARD4 (down regulated gene): −1.26 fold
  Fold Change STAT5A (up regulated gene): 1.09 fold
  Fold Change SYBU (up regulated gene): 1.09 fold
  Fold Change SYNPO (up regulated gene): 1.14 fold
  Fold Change TBCE (down regulated gene): −1.67 fold
  Fold Change TINF2 (down regulated gene): −1.58 fold
  Fold Change TJP1 (up regulated gene): 1.02 fold
  Fold Change TPM1-AS (up regulated gene): 1.08 fold
  Fold Change TRNH (down regulated gene): −1.08 fold
  Fold Change U2AF1 (up regulated gene): 1.40 fold
  Fold Change UGT2A3 (up regulated gene): 1.83 fold
  Fold Change VARS1 (up regulated gene): 3.03 fold
  Fold Change VPS11 (up regulated gene): 1.96 fold
  Fold Change YWHAE (down regulated gene): −1.84 fold
3 hours post treatment
  number of DEGs regulated by CA, total: 109
  number of DEGs, down-regulated: 50
  number of DEGs, up-regulated: 59
6 hours
  number of DEGs regulated by CA, total: 120
  number of DEGs, down-regulated: 61
  number of DEGs, up-regulated: 59
12 hours
  number of DEGs regulated by CA, total: 164
  number of DEGs, down-regulated: 80
  number of DEGs, up-regulated: 84
24 hours
  number of DEGs regulated by CA, total: 245
  number of DEGs, down-regulated: 112
  number of DEGs, up-regulated: 133
